Patent US4415495A, “5,6;8,9-Tetrahydro-7H-dibenz(d,f)azonines” (Godecke Aktiengesellschaft, priority 1981, dated 1983)

What was measured:
[1] = system: guinea pig left ventricle; experiment: Refractory time of electrically stimulated guinea pig left ventricles (organ bath)
Method: The left ventricles of guinea pig hearts are electrically stimulated in an organ bath, the amplitude of contraction being recorded. By means of a second stimulus, the time is determined below which the heart muscle no longer reacts with a separately resolvable contraction. This time is defined as the refractory time.
The following Table II contains information concerning the maximum tested compound concentrations, as well as the average prolongation of the refractory time measured at this concentration in comparison with the initial value of, in each case, at least 6 experiments.

[2] = in vivo; conditions: mouse, po
Method: The compounds according to the present invention are administered intragastrally to male mice (NMRI) with a body weight of from 20 to 25 g. Each dosage group consists of 4 animals. The LD50 values are determined after having observed the animals for 7 days.

[3] = system: rabbit eye; experiment: Local anesthetic action on the rabbit eye (corneal reflex); assay type: in vivo, rabbits; conditions: for Period of Action: observation discontinued after 60 minutes
Method: The corneal reflex is induced in rabbits using a horse hair which bends with a pressure of about 250 mg (modification of the method described by M. von Frey, Beitrage zur Physiologie des Schmerzsinns, Vehr. d. Kgl. Sachs, Ges. d. Wiss. zu Leipzig, Math.-phys. Kl., 46, 185/1894; Untersuchungen uber die Sinnesfunktionen der menschlichen Haut, Leipzig, 1896). After instillation of local anesthetics into the conjunctival sac of the eye, the number of impacts with the horse hair which result in closure of the eyelid is increased. At intervals of 4 minutes, in each case a maximum of 100 successive impacts are carried out and such an action is taken as being 100%. The period of investigation is at most 60 minutes. The action of the compounds according to the present invention is compared with that of tetracaine and procainamide.
The following Table VII contains the results of the experiments on the rabbit eye. There are also given, in addition to the concentrations of the test solutions which were instilled into the conjunctival sac, the actions of the compounds in % (see description of the method), as well as their period of action. In each case, the observations were discontinued after 60 minutes.

[4] = system: dogs with coronary ligature; experiment: Coronary ligature on dogs (period of sinus rhythm from ECG); assay type: in vivo
From the text: Using narcotised dogs, after thoracotomy, a coronary artery (side branch of the R. interventr. post. or of the R. circumflexus) is ligatured (see. A. S. Harris, Circulation, 1, 1318/1950). The heart rhythm disturbances which occur as a result thereof are, on the day following the operation, recorded on the awake animals and treated with the compounds according to the present invention by intragastral and intravenous administration. Procainamide is used as a positive standard. From the ECG, the time is determined in which, after administration of the test compound, a sinus rhythm can be recognized.
The compounds of Examples 1 (Table III), 4 (Table IV) and 10 (Table V) were tested on dogs with a coronary ligature. All the compounds were, in each case, tested on at least 5 animals.

[5] = system: Rats with calcium chloride induced arrhythmias; experiment: Calcium chloride induced arrhythmias in narcotised rats (prophylactic i.v. administration); assay type: in vivo; conditions: control 10.9 min.
From the text: By means of the intravenous infusion of a calcium chloride solution, […] induced in narcotised rats which, after termination of the infusion, continue for a certain period of time (modification of the method described by Malinow et al., Arch. Int. Pharmacodyn, 102, 266/1955). This arrhythmic phase is shortened by the prophylactic administration of antiarrhythmic drugs. […] The results of the experiments with calcium chloride induced arrhythmias on rats are summarized in the following Table I. The average period of arrhythmia is calculated from experiments with at least 10 animals.

[6] = Oryctolagus cuniculus, topical, concentration 0.5 %

COc1ccc2c(c1)-c1c(ccc(OC)c1O)CC(CCc1ccccc1)N(C)CC2 (single isomer, unassigned; (+)) [Example 10, (+)-2,12-Dimethoxy-1-hydroxy-7-methyl-6-phenethyl-5,6;8,9-tetrahydro-7H-dibenz(d,f)azonine]
average prolongation of the refractory time ([1]; 4.0 × 10^-6 g/ml in the bath): 44 ms
LD50 at 168 h [2]: 600 mg/kg
inhibition in vivo at 1 % ([3]; Oryctolagus cuniculus, topical, concentration 1.0 %): 100%
Period of Action ([3]; concentration 1.0 %): > 60 min
average period of eurhythmia ([4]; 2 mg/kg i.v.): 40 min
average period of eurhythmia ([4]; 5 mg/kg i.g.): 105 min
average period of eurhythmia ([4]; 10 mg/kg i.g.): 169 min
average period of eurhythmia ([4]; 40 mg/kg i.g.): 185 min
average period of arrhythmia ([5]; 2.5 mg/kg I.V.): 5.4 min

COc1ccc2c(c1)-c1c(ccc(OC)c1O)CC(Cc1ccccc1)N(C)CC2 (single isomer, unassigned; (-)) [Example 1, (-)-6-Benzyl-2,12-dimethoxy-1-hydroxy-7-methyl-5,6;8,9-tetrahydro-7H-dibenz(d,f)azonine]
average prolongation of the refractory time ([1]; 8.0 × 10^-6 g/ml in the bath): 43 ms
LD50 at 168 h [2]: 680 mg/kg
inhibition in vivo at 0.1 % ([3]; Oryctolagus cuniculus, topical, concentration 0.1 %): 89%
inhibition in vivo at 0.5 % [3, 6]: 100%
Period of Action ([3]; concentration 0.1 %): about 49 Min.
Period of Action ([3]; concentration 0.5 %): > 60 min
average period of eurhythmia ([4]; 4 mg/kg i.v.): 62 min
average period of eurhythmia ([4]; 10 mg/kg i.g.): 49 min
average period of eurhythmia ([4]; 15 mg/kg i.g.): 99 min
average period of eurhythmia ([4]; 20 mg/kg i.g.): 105 min
average period of eurhythmia ([4]; 25 mg/kg i.g.): 198 min
average period of arrhythmia ([5]; 2.5 mg/kg I.V.): 4.0 min

CCN(CC)CCNC(=O)c1ccc(N)cc1 [procainamide, reference compound]
average prolongation of the refractory time ([1]; 6.4 × 10^-5 g/ml in the bath): 7 ms
LD50 at 168 h [2]: 1200 mg/kg
inhibition in vivo at 0.5 % [3, 6]: 1%
inhibition in vivo at 2 % ([3]; Oryctolagus cuniculus, topical, concentration 2.0 %): 1%
Period of Action ([3]; concentration 0.5 %): 0 min
Period of Action ([3]; concentration 2.0 %): 0 min
local anesthetic activity (in words) ([3]; versus procainamide and tetracaine): inactive
average period of eurhythmia ([4]; 10 mg/kg i.v.): 19 min
average period of arrhythmia ([5]; 10 mg/kg I.V.): 7.3 min
